Assay results reported in patent US11458189B2, “Cytoprotective drugs” (BALMES TRANSPLANTATION, priority 2017, dated 2022).
Starred links: 1 amine or outer side, 2 acyl side, 3 side chain; linkers in the order of their positions; H or OH if unused. Positions of bridges follow the written chain, without caps; N, C: chain ends. Non-standard residues stand in square brackets, D forms with d. Residues, ends and D or L forms follow the SMILES beside them. *: point of attachment. hTyr(3S-OH,4S-OH,3'-OSO3H) = N[C@H](C(=O)O)[C@H](O)[C@@H](O)c1ccc(O)c(OS(=O)(=O)O)c1; Orn(4R-OH,5R-OH) = O=C([C@H](C[C@@H](O)[C@@H](O)N[*:3])N[*:1])[*:2]; Pro(3S-OH,4S-Me) = C[C@H]1CN[C@H](C(=O)O)[C@H]1O; X1 = CCCCCOc1ccc(-c2cc(-c3ccc(C(=O)*)cc3)no2)cc1; Gln(3R-OH) = NC(=O)C[C@@H](O)[C@H](N)C(=O)O; Hyp = O=C(O)[C@@H]1C[C@@H](O)CN1

System: Rat Primary Kidney Glomerular Endothelial cells
Experiment: Oxygen and glucose deprivation followed by replenishment, cell survival (calcein AM), rat glomerular endothelial cells;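 for Survival rate (%): 100% is hypoxia control with glucose and 0% is untreated OGD control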
Assay type: cell-based
Description: Anidulafungin and micafungin were tested on Human Renal Glomerular Endothelial Cells (HRGEC, Innoprot P10665), on Human Renal Proximal Tubular Epithelial Cells (HRPTEpiC, Innoprot P10662), on Human Astrocytes (HA, caltag SC-1800), on Human Cardiac Microvascular Endothelial Cells (HCMEC, Caltag SC-6000), on Human Hepatic Sinusoidal Endothelial Cells (HHSEC, Caltag SC-5000), on Rat Primary Kidney Glomerular Endothelial cells (Cellbiologics, RN-6014G) and on Bovine Brain Microvascular Endothelial Cells (BBMEC, Caltag SC-B100).
In a first phase, these isolated, purified and cryopreserved cells are thawed and multiplied according to the supplier's recommendations in T75 or T175 flasks pre-coated with 2 μg of fibronectin/[…] (CORNING) for HRGEC, HCMEC, HHSEC and BBMEC, or 2 μg poly-L-lysin/cm^2 (Caltag SC-0403) for HRPTEpiC and HA, or 15 mL/flask 175 cm^2 gelatin-based solution (Cellbiologics) in the presence of endothelial cell supplemented growth medium ECM (P60104, INNOPROT, Caltag, SC-1001) for HRGEC, HCMEC, HHSEC, RPKGEC or BBMEC, or astrocyte cell supplemented growth medium AM (Caltag SC-1801) for HA or epithelial cell supplemented growth medium EpiCM (P60106, INNOPROT) for HRPTEpiC, at 37° C. under 5% CO2 and saturated humidity until their confluency. They are then harvested by trypsinization according to the method described by the supplier for exactly 5 minutes and then reseeded in new flasks a maximum of three times.
To carry out the oxygen and glucose deprivation test followed by their replenishment, the cells will be seeded in 96-well black plates with transparent flat bottom (GREINER). Once a sufficient number of cells has been obtained to allow seeding of 2000 to 15000 cells per well of 96-well plates depending on the cell type, the cells are seeded in these 96-well plates previously coated with an extracellular matrix as listed above for the flasks. The cells are cultured for 5 to 8 days according to the cell type, in the presence of the same growth medium as in the flask as described above except for HRGEC and HRPTEpiC for which DMEM (DUTSCHER) with 1 g/L of supplemented glucose is used, at 37° C. under 5% CO2 and saturated humidity to obtain confluency.
On the first day of oxygen and glucose deprivation, (5th, 6th, 7th or 8th day of culture), the culture conditions are drastically changed. The medium of all plates is removed and replaced by DMEM (DUTSCHER) medium without glucose and supplemented only with 1% penicillin-streptomycin (DUTSCHER). Anidulafungin or micafungin dissolved in dimethyl sulfoxide (DMSO) is then added to each well at the desired concentration, resulting in a maximum of 1% DMSO, and the plates are placed under hypoxia at <1% 02 and 5% CO2 at 37° C. for 24 hours of culture. Each compound was tested in a concentration range.
After 24 hours, the growth medium is changed and replaced by a richer medium, DMEM (DUTSCHER) at 1 g/L glucose and 2% FBS (INNOPROT) and 1% penicillin-streptomycin (DUTSCHER). These media will have been pre-equilibrated at 37° C. in advance. The cells are then returned to culture at 37° C. under 20% 02 and 5% CO2 for 22h.
After 22 hours of reoxygenation, the potential protective effect of anidulafungin or micafungin is measured by a cell viability test using calcein AM (CORNING), which is a dye substrate. The calcein AM can easily cross the cell membrane of the viable cells. The AM ester groups mask the part of the molecule that chelates calcium. Once inside the cells, the (non-fluorescent) calcein AM is hydrolyzed to (fluorescent) calcein by endogenous esterases. The resulting calcein molecule binds to calcium inside the cell and remains trapped inside the cell. These molecules emit strong green fluorescence when subjected to […] of a particular wavelength (495 nm). Since dead cells lack esterase activity, only living cells are labelled.
This cell viability test is performed in two steps. […]

CCCCCOc1ccc(-c2cc(-c3ccc(C(=O)N[C@H]4C[C@@H](O)[C@@H](O)NC(=O)[C@@H]5[C@@H](O)[C@@H](C)CN5C(=O)[C@H]([C@H](O)CC(N)=O)NC(=O)[C@H]([C@H](O)[C@@H](O)c5ccc(O)c(OS(=O)(=O)O)c5)NC(=O)[C@@H]5C[C@@H](O)CN5C(=O)[C@H]([C@@H](C)O)NC4=O)cc3)no2)cc1 [Micafungin, {5-[(1S,2S)-2-[(3S,6S,9S,11R,15S,18S,20R,21R,24S,25S,26S)-3-[(1R)-2-carbamoyl-1-hydroxyethyl]-11,20,21,25-tetrahydroxy-15-[(1R)-1-hydroxyethyl]-26-methyl-2,5,8,14,17,23-hexaoxo-18-[(4-{5-[4-(pentyloxy)phenyl]-1,2-oxazol-3-yl}benzene)amido]-1,4,7,13,16,22-hexaazatricyclo[22.3.0.0]heptacosan-6-yl]-1,2-dihydroxyethyl]-2-hydroxyphenyl}oxidanesulfonic acid] (X1-[Orn(4R-OH,5R-OH)]T[Hyp][hTyr(3S-OH,4S-OH,3'-OSO3H)][Gln(3R-OH)][Pro(3S-OH,4S-Me)]; lactam 1-C)
Globalfluo assay 1 ([Micafungin] log μM 0): 5417339 arbitrary units
Globalfluo assay 2 ([Micafungin] log μM 0): 3464807 arbitrary units
Globalfluo assay 3 ([Micafungin] log μM 0): 4867657 arbitrary units
Mean globalfluo ([Micafungin] log μM 0): 4583268 arbitrary units
Survival rate (%) ([Micafungin] log μM 0): 3%
Globalfluo assay 1 ([Micafungin] log μM 0.1760913): 8740776 arbitrary units
Globalfluo assay 2 ([Micafungin] log μM 0.1760913): 7981119 arbitrary units
Globalfluo assay 3 ([Micafungin] log μM 0.1760913): 5239211 arbitrary units
Mean globalfluo ([Micafungin] log μM 0.1760913): 7320369 arbitrary units
Survival rate (%) ([Micafungin] log μM 0.1760913): 14%
Globalfluo assay 1 ([Micafungin] log μM 0.30103): 3351615 arbitrary units
Globalfluo assay 2 ([Micafungin] log μM 0.30103): 4221516 arbitrary units
Globalfluo assay 3 ([Micafungin] log μM 0.30103): 4567106 arbitrary units
Mean globalfluo ([Micafungin] log μM 0.30103): 4046746 arbitrary units
Survival rate (%) ([Micafungin] log μM 0.30103): 0%
Globalfluo assay 1 ([Micafungin] log μM 0.39794): 5495171 arbitrary units
Globalfluo assay 2 ([Micafungin] log μM 0.39794): 5446233 arbitrary units
Globalfluo assay 3 ([Micafungin] log μM 0.39794): 3835973 arbitrary units
Mean globalfluo ([Micafungin] log μM 0.39794): 4925792 arbitrary units
Survival rate (%) ([Micafungin] log μM 0.39794): 4%
Globalfluo assay 1 ([Micafungin] log μM 0.4771213): 4782175 arbitrary units
Globalfluo assay 2 ([Micafungin] log μM 0.4771213): 7854686 arbitrary units
Globalfluo assay 3 ([Micafungin] log μM 0.4771213): 4782283 arbitrary units
Mean globalfluo ([Micafungin] log μM 0.4771213): 5806381 arbitrary units
Survival rate (%) ([Micafungin] log μM 0.4771213): 8%
Globalfluo assay 1 ([Micafungin] log μM 0.60206): 12878800 arbitrary units
Globalfluo assay 2 ([Micafungin] log μM 0.60206): 13369330 arbitrary units
Globalfluo assay 3 ([Micafungin] log μM 0.60206): 12813230 arbitrary units
Mean globalfluo ([Micafungin] log μM 0.60206): 13020453 arbitrary units
Survival rate (%) ([Micafungin] log μM 0.60206): 37%
Globalfluo assay 1 ([Micafungin] log μM 0.69897): 14177330 arbitrary units
Globalfluo assay 2 ([Micafungin] log μM 0.69897): 11602990 arbitrary units
Globalfluo assay 3 ([Micafungin] log μM 0.69897): 9423392 arbitrary units
Mean globalfluo ([Micafungin] log μM 0.69897): 11734571 arbitrary units
Survival rate (%) ([Micafungin] log μM 0.69897): 31%
Globalfluo assay 1 ([Micafungin] log μM 0.7781513): 5553126 arbitrary units
Globalfluo assay 2 ([Micafungin] log μM 0.7781513): 6638483 arbitrary units
Globalfluo assay 3 ([Micafungin] log μM 0.7781513): 7505823 arbitrary units
Mean globalfluo ([Micafungin] log μM 0.7781513): 6565811 arbitrary units
Survival rate (%) ([Micafungin] log μM 0.7781513): 11%
Globalfluo assay 1 ([Micafungin] log μM 0.845098): 7968558 arbitrary units
Globalfluo assay 2 ([Micafungin] log μM 0.845098): 13328410 arbitrary units
Globalfluo assay 3 ([Micafungin] log μM 0.845098): 4864200 arbitrary units
Mean globalfluo ([Micafungin] log μM 0.845098): 8720389 arbitrary units
Survival rate (%) ([Micafungin] log μM 0.845098): 19%
Globalfluo assay 1 ([Micafungin] log μM 0.90309): 16467230 arbitrary units
Globalfluo assay 2 ([Micafungin] log μM 0.90309): 5461253 arbitrary units
Globalfluo assay 3 ([Micafungin] log μM 0.90309): 9297072 arbitrary units
Mean globalfluo ([Micafungin] log μM 0.90309): 10408518 arbitrary units
Survival rate (%) ([Micafungin] log μM 0.90309): 26%
Globalfluo assay 1 ([Micafungin] log μM 0.9542425): 17001920 arbitrary units
Globalfluo assay 2 ([Micafungin] log μM 0.9542425): 15398170 arbitrary units
Globalfluo assay 3 ([Micafungin] log μM 0.9542425): 11994410 arbitrary units
Mean globalfluo ([Micafungin] log μM 0.9542425): 14798167 arbitrary units
Survival rate (%) ([Micafungin] log μM 0.9542425): 44%
Globalfluo assay 1 ([Micafungin] log μM 1): 24112850 arbitrary units
Globalfluo assay 2 ([Micafungin] log μM 1): 13345620 arbitrary units
Globalfluo assay 3 ([Micafungin] log μM 1): 20572260 arbitrary units
Mean globalfluo ([Micafungin] log μM 1): 19343577 arbitrary units
Survival rate (%) ([Micafungin] log μM 1): 62%
Globalfluo assay 1 ([Micafungin] log μM 1.041393): 8422700 arbitrary units
Globalfluo assay 2 ([Micafungin] log μM 1.041393): 12678250 arbitrary units
Globalfluo assay 3 ([Micafungin] log μM 1.041393): 11578770 arbitrary units
Mean globalfluo ([Micafungin] log μM 1.041393): 10893240 arbitrary units
Survival rate (%) ([Micafungin] log μM 1.041393): 28%
Globalfluo assay 1 ([Micafungin] log μM 1.079181): 11147190 arbitrary units
Globalfluo assay 2 ([Micafungin] log μM 1.079181): 19591720 arbitrary units
Globalfluo assay 3 ([Micafungin] log μM 1.079181): 15002320 arbitrary units
Mean globalfluo ([Micafungin] log μM 1.079181): 15247077 arbitrary units
Survival rate (%) ([Micafungin] log μM 1.079181): 46%
